Laboratory results from patent EP4656642A1, “ESTROGEN RECEPTOR PROTEOLYSIS TARGETING CHIMERA COMPOUND AND USE THEREOF” (GAN & LEE PHARM CO., LTD, priority 2023, dated 2024).
Values joined by “and” are separate entries in the source; they are usually repeats but may differ in a detail not shown here. Equal values may be shown once.

Experiments:
Assay type in all cases: cell-based
T-47D cells = experiment: Inhibition of cell proliferation in T-47D cells (CCK-8, 6 days); conditions: 6 days of treatment
Excerpt: Test Example 2: Inhibitory effect of the PROTAC compounds provided in the present disclosure on cell proliferation in T-47D cells (source ATCC)
The complete medium required for T-47D cells was 1640 ( ATCC, Product number: A10491-01) basal medium containing 10% fetal bovine serum. T-47D cells were inoculated in 96-well plates at a density of 3,000 cells/well, and different concentrations of the PROTAC compounds 1-55 provided in the examples of the present disclosure and a positive control sample ARV-471 (source: Innochem) were prepared to treat cells, and the cells were treated at 37°C in a cell culture incubator with 5% CO2 for 6 days. Cell viability was detected using a CCK-8 kit (Beyotime, Product number: C0040) according to the manufacturer's instructions. […] Table 2 IC50 values for inhibition of the proliferation of T-47D cells by the PROTAC compounds provided by the present disclosure and the positive control sample

ERα [1] = target: T1, ERα (Homo sapiens, UniProt P03372); experiment: Degradation of ERα in T-47D cells (immunoblotting, 4 h); parameters: host or cells: T-47D
T1 sequence (P03372 1-595): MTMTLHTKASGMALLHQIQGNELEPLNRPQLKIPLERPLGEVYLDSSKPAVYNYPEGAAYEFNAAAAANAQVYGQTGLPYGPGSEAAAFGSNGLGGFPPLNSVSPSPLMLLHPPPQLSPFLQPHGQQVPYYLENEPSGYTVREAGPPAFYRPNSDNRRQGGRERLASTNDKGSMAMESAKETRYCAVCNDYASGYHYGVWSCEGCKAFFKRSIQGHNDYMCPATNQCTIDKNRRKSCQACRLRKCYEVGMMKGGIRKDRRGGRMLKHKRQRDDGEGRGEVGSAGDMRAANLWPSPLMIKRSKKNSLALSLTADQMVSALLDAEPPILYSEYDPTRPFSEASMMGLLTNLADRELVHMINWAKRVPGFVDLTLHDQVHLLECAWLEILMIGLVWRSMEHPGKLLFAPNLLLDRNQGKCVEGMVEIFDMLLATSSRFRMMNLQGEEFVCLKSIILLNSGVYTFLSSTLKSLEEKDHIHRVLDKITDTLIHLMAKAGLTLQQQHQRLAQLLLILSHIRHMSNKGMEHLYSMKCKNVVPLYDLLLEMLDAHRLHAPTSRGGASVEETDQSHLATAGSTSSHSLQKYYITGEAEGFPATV
Summary of the method: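 T-47D cells were treated with compound (final 0.15-1000 nM, DMSO) for 4 h at 37°C, 5% CO2. Cells were lysed in RIPA buffer with protease inhibitor, and ERα protein in the cleared lysate was measured by immunoblotting.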

MCF-7 cells = experiment: Inhibition of cell proliferation of MCF-7 cells (CCK-8, 9 days)
Summary of the method: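 MCF-7 cells seeded at 800 cells/well in DMEM with 10% FBS, exposed to a range of compound concentrations for 9 days at 37°C, 5% CO2. Viability read by CCK-8; IC50 derived for proliferation inhibition.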

ERα [2] = target: T1, ERα; experiment: Degradation of ERα in MCF-7 cells (immunoblotting, 4 h)
Summary of the method: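 MCF-7 cells treated 4 h at 37°C with compounds at 0.15-1000nM final. ERα in lysates measured by immunoblot, with band grayscale normalized to an internal reference protein. Degradation rate calculated against DMSO-treated control.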

[3] = 9 days of treatment, CCK-8, Table 5
[4] = treated for 9 days, CCK-8 kit (Table 6)

| Structure (SMILES) | IC50 (T-47D cells; Table 2) | Degradation rate (%) of ERα in T-47D cells (ERα [1]; 1nM compound) | Degradation rate (%) of ERα in T-47D cells (ERα [1]; 10nM compound) | IC50 (MCF-7 cells; [3]) | IC50 (T-47D cells; Table 3) | IC50 (MCF-7 cells; [4]) | Degradation rate (%) of ERα in MCF-7 cells (ERα [2]; 10nM compound) | Degradation rate (%) of ERα in MCF-7 cells (ERα [2]; 1nM compound) |
| --- | --- | --- | --- | --- | --- | --- | --- | --- |
| O=C1CCC(N2Cc3cc4c(cc3C2=O)CCC2(CN(C3CC5(CCN(c6ccc([C@@H]7c8ccc(O)cc8CC[C@@H]7c7ccccc7)cc6)CC5)C3)C2)O4)C(=O)N1 (stereo partly drawn) [M13] | 1.6 nM | 13% | 27% | 70 nM | – | – | – | – |
| O=C1CCC(N2Cc3cc4c(cc3C2=O)OCC2(CCN(C3CC5(CCN(c6ccc([C@@H]7c8ccc(O)cc8CC[C@@H]7c7ccccc7)cc6)CC5)C3)CC2)O4)C(=O)N1 (stereo partly drawn) [M11] | 1 nM | 17% | 56% | 20 nM | – | – | – | – |
| O=C1CCC(N2Cc3cc4c(cc3C2=O)CCC2(CCN(C3CC5(CCN(c6ccc([C@@H]7c8ccc(O)cc8CC[C@@H]7c7ccccc7)cc6)CC5)C3)CC2)O4)C(=O)N1 (stereo partly drawn) [M12] | 2 nM | – | – | 10 nM | 2 nM | 12 nM | – | – |
| O=C1CCC(N2C(=O)c3cc4c(cc3C2=O)C2(CCN(C3CC5(CCN(c6ccc(C7c8ccc(O)cc8CCC7c7ccccc7)cc6)CC5)C3)CC2)CO4)C(=O)N1 (stereo not drawn) [A19] | 20 nM | – | 18% | – | – | – | 18% | – |
| CC1CC(N2CCC3(CC2)COc2c3ccc3c2CN(C2CCC(=O)NC2=O)C3=O)CCN1C1CCN(c2ccc(C3c4ccc(O)cc4CCC3c3ccccc3)cc2)CC1 (stereo not drawn) [K22] | – | -3% | 19% | – | 8.52 nM | 24.3 nM | – | – |
| O=C1CCC(N2Cc3c(ccc4c3OCC43CCN(C4CC5(CCC6(CC5)CN(C5CCN(c7ccc([C@@H]8c9ccc(O)cc9CC[C@@H]8c8ccccc8)cc7)CC5)C6)C4)CC3)C2=O)C(=O)N1 (stereo partly drawn) [K16] | – | – | – | – | 3 nM | 320 nM and 214 nM | – | – |
| O=C1CCC(N2C(=O)c3cc4c(cc3C2=O)OC2(CC4)CCN(CC3CCN(c4ccc(C5c6ccc(O)cc6CCC5c5ccccc5)cc4)C3)CC2)C(=O)N1 (stereo not drawn) [A9] | 24 nM | – | -25% | – | – | – | -24% | – |
| O=C1CCC(N2Cc3c(ccc4c3OCC43CCN(C4CC5(CCC6(CCN(c7ccc([C@@H]8c9ccc(O)cc9CC[C@@H]8c8ccccc8)cc7)CC6)CC5)C4)CC3)C2=O)C(=O)N1 (stereo partly drawn) [B23] | – | – | – | – | 10.2 nM | 417 nM | 40% | 17% |
| N#CC1(CN2CCC3(CC2)COc2c3ccc3c2CN(C2CCC(=O)NC2=O)C3=O)CCN(CC2CCN(c3ccc([C@@H]4c5ccc(O)cc5CC[C@@H]4c4ccccc4)cc3)CC2)CC1 (stereo partly drawn) [N7] | – | 56% | 67% | – | 1.72 nM | – | 13% | 2% |
| O=C1CCC(N2C(=O)c3cc4c(cc3C2=O)OC2(CC4)CN(CC3CCC4(CC3)CN(c3ccc([C@@H]5c6ccc(O)cc6CC[C@@H]5c5ccccc5)cc3)C4)C2)C(=O)N1 (stereo partly drawn) [M14] | – | -29% | -17% | – | 30 nM | 23 nM | – | – |
| CC1(C(=O)N2CCC(N3CCC4(CC3)COc3c4ccc4c3CN(C3CCC(=O)NC3=O)C4=O)CC2)CCN(c2ccc([C@@H]3c4ccc(O)cc4CC[C@@H]3c3ccccc3)cc2)CC1 (stereo partly drawn) [N1] | – | 58% | 79% | – | 1.18 nM | – | 68% | 54% |
